Test results from article PMC3725620 (Breast cancer research and treatment, 2011).

Columns and labels:
[1] = molecular target: prostaglandin E receptor EP4 (Homo sapiens, UniProt P35408); experiment: inhibition of 3H-PGE2 radioligand binding; assay type: cell-based
[2] = molecular target: prostaglandin E receptor EP2 (Homo sapiens, UniProt P43116); experiment: inhibition of 3H-PGE2 radioligand binding; assay type: cell-based
Sequence of prostaglandin E receptor EP2 (P43116 whole entry): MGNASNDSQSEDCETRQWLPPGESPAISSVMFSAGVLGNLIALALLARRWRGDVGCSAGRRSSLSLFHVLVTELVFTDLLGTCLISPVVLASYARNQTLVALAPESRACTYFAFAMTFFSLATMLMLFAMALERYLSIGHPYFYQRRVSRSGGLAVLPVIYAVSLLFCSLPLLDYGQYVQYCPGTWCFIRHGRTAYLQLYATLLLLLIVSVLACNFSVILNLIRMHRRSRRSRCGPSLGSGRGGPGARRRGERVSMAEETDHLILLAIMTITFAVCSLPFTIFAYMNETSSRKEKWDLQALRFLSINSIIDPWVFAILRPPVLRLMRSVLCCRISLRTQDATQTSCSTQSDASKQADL

Sequence of prostaglandin E receptor EP4 (P35408 whole entry): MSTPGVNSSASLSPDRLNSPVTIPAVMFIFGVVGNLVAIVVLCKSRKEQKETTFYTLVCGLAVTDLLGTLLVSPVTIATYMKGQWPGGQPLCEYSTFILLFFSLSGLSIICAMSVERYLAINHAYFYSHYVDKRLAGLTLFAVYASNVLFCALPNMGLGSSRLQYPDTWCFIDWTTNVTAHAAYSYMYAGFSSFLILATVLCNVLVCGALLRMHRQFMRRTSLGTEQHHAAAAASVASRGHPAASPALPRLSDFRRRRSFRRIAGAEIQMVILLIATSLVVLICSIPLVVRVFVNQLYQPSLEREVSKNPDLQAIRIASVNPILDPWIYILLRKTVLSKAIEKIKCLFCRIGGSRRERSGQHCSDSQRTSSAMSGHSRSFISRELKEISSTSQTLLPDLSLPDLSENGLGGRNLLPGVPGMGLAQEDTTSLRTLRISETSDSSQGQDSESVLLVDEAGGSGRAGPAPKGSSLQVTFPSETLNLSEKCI

Compound `CO[C@@H]1[C@@H](O)[C@H](O[C@@H]2[C@@H](O)[C@H](O[C@H]3[C@H](O)[C@@H](O[C@@H]4OC[C@@H](O)[C@H](O)[C@H]4O)[C@H](O[C@H]4[C@H](OC5CC[C@]6(C)[C@H]7CCC89C(=O)O[C@@](C)(CCCC(C)C)C8[C@@H](OC(C)=O)C[C@@]9(C)C7=CC[C@H]6C5(C)C)OC[C@@H](OS(=O)(=O)O)[C@@H]4O)O[C@@H]3C)OC[C@H]2O)O[C@H](CO)[C@H]1O` (some centres unmarked) [FA, Frondoside A] has an IC50 [1] of about 3.7 µM and an IC50 [2] of 16.5 µM.
